Test results as given in patent US8822449B2, “Substituted aminoindanes and analogs thereof, and the pharmaceutical use thereof” (Sanofi, priority 2008, dated 2014).

molecular target: T1, sodium-proton exchanger of subtype 3 (NHE3) (Homo sapiens, UniProt P48764); test: Recovery of intracellular pH (pHi) after acidification in LAP1 cells stably expressing NHE3 (BCECF fluorescence, FLIPR); type: cell-based; settings: LAP1 cells stably expressing NHE3; pH recovery after acidification; range 1 is % inhibition at 10 μM; read-out: Activity range (inhibitory effect on NHE3)
T1 construct: expressed in transfected cells
T1 sequence (P48764 26-834): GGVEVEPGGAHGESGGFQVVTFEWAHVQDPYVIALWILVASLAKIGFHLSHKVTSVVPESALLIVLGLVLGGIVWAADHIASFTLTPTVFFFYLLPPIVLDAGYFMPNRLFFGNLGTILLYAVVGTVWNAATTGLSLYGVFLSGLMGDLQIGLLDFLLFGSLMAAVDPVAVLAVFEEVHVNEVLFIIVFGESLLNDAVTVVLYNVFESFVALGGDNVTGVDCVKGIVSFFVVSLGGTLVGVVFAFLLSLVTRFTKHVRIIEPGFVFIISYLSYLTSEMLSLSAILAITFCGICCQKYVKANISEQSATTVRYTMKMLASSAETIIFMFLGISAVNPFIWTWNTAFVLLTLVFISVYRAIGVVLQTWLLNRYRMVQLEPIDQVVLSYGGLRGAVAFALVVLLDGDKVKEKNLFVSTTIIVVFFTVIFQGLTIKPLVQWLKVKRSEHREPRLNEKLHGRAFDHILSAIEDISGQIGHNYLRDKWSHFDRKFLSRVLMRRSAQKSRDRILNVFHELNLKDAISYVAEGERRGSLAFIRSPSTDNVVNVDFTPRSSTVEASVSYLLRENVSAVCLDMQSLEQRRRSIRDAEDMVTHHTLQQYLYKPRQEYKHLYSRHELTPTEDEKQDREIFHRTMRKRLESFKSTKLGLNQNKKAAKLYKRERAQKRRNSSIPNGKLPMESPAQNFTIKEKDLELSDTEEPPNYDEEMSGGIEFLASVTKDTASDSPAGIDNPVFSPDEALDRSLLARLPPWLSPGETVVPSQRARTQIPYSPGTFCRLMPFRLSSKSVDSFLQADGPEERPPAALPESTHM

| Compound | IC50 [µM] | inhibition at 10 µM [%] |
| --- | --- | --- |
| COCCN1CCCN([C@H]2Cc3c(Cl)cc(Cl)cc3[C@@H]2Oc2ccc(S(C)(=O)=O)cc2)CC1 [Example 304, 1-[trans-(1S,2S)-4,6-dichloro-1-(4-methanesulfonylphenoxy)indan-2-yl]-4-(2-methoxyethyl)-[1,4]diazepane] | < 1 |  |
| c1cc(CN2CCCCC2)cc(O[C@@H]2c3ccccc3C[C@H]2N2C[C@H]3CNC[C@H]3C2)c1 (racemic) [Example 14, 2-[rac-trans-(1,2)-1-(3-piperidin-1-ylmethylphenoxy)indan-2-yl]octahydropyrrolo[3,4-c]pyrrole] | 1 to 10 |  |
| O=c1[nH]ccn1-c1ccc(O[C@H]2c3cc(Cl)cc(Cl)c3C[C@@H]2N2CC[C@@H](O)C2)c(F)c1 [Example 323, 1-{4-[(1S,2S)-4,6-dichloro-2-((R)-3-hydroxypyrrolidin-1-yl)indan-1-yloxy]-3-fluorophenyl}-1,3-dihydroimidazol-2-one] | < 1 |  |
| CN(C)Cc1ccc(O[C@H]2c3ccccc3CC[C@@H]2N2CCC[C@H](N)C2)cc1 (racemic) [Example 177, (S)-1-[rac-trans-(1,2)-1-(4-dimethylaminomethylphenoxy)-1,2,3,4-tetrahydronaphthalen-2-yl]piperidin-3-ylamine] |  | 20 to 50 |
| COc1ccc(C)cc1O[C@H]1c2ccccc2CC[C@@H]1N1CCC[C@H](N)C1 (racemic) [Example 157, (S)-1-[rac-trans-(1,2)-1-(2-methoxy-5-methylphenoxy)-1,2,3,4-tetrahydronaphthalen-2-yl]piperidin-3-ylamine] |  | 20 to 50 |
| Cc1nnc(C)n1-c1ccc(O[C@H]2c3cc(Cl)cc(Cl)c3C[C@@H]2N2CC[C@@H](O)C2)cc1 [Example 133, (R)-1-{trans-(1S,2S)-4,6-dichloro-1-[4-(3,5-dimethyl-[1,2,4]triazol-4-yl)phenoxy]indan-2-yl}pyrrolidin-3-ol] | < 1 |  |
| COCCN1CCCN([C@H]2Cc3c(Cl)cc(Cl)cc3[C@@H]2Oc2ccc(-n3c(C)nnc3C)cc2)CC1 [Example 348, 1-{trans-(1S,2S)-4,6-dichloro-1-[4-(3,5-dimethyl-[1,2,4]triazol-4-yl)phenoxy]indan-2-yl}-4-(2-methoxyethyl)-[1,4]diazepane] | < 1 |  |
| CC(C)[C@H]1COC(=O)N1c1ccc(F)c(O[C@H]2c3cc(Cl)cc(F)c3C[C@@H]2N2CC[C@@H](O)C2)c1 [Example 210, (S)-3-{3-[(1S,2S)-6-chloro-4-fluoro-2-((R)-3-hydroxypyrrolidin-1-yl)indan-1-yloxy]-4-fluorophenyl}-4-isopropyloxazolidin-2-one] | 1 to 10 |  |
| N[C@@H]1CCCN([C@@H]2Cc3ccccc3[C@H]2Oc2ccc(-n3ccnc3)cc2)C1 (racemic) [Example 72, (R)-1-[rac-trans-(1,2)-1-(4-imidazol-1-ylphenoxy)indan-2-yl]piperidin-3-ylamine] | < 1 |  |
| COc1cc(Cl)ccc1O[C@H]1c2ccccc2CC[C@@H]1N1CCC[C@H](N)C1 (racemic) [Example 174, (S)-1-[rac-trans-(1,2)-1-(4-chloro-2-methoxyphenoxy)-1,2,3,4-tetrahydronaphthalen-2-yl]piperidin-3-ylamine] |  | 20 to 50 |
| CS(=O)(=O)c1ccc(O[C@H]2c3cc(Cl)cc(Cl)c3C[C@@H]2N2CC3C[C@H]2CN3)cc1 [Example 209, (S)-2-[trans-(1S,2S)-4,6-dichloro-1-(4-methanesulfonylphenoxy)indan-2-yl]-2,5-diazabicyclo[2.2.1]heptane] | < 1 |  |
| Cc1cc(O[C@@H]2c3cc(Cl)cc(F)c3C[C@H]2N2CCC[C@@H](N)C2)ccc1S(=O)(=O)C(F)(F)F (racemic) [Example 92, (R)-1-[rac-trans-(1,2)-6-chloro-4-fluoro-1-(3-methyl-4-trifluoromethanesulfonylphenoxy)indan-2-yl]piperidin-3-ylamine] |  | 20 to 50 |
| COCCc1ccc(O[C@@H]2c3ccccc3C[C@H]2N2CCC[C@@H](N)C2)cc1 (racemic) [Example 116, (R)-1-{rac-trans-(1,2)-1-[4-(2-methoxyethyl)phenoxy]indan-2-yl}piperidin-3-ylamine] | 1 to 10 |  |
| CS(=O)(=O)c1ccc(O[C@H]2c3cc(Cl)ccc3C[C@@H]2N2CC[C@@H](O)C2)c(Cl)c1 [Example 107, (R)-1-[trans-(1S,2S)-6-chloro-1-(2-chloro-4-methanesulfonylphenoxy)indan-2-yl]pyrrolidin-3-ol] | 1 to 10 |  |
| N[C@H]1CCCN([C@H]2CCc3ccccc3[C@@H]2Oc2ccc(Cl)nc2)C1 (racemic) [Example 190, (S)-1-[rac-trans-(1,2)-1-(6-chloropyridin-3-yloxy)-1,2,3,4-tetrahydronaphthalen-2-yl]piperidin-3-ylamine] |  | 20 to 50 |

Now from value to compound:

| IC50 [µM] | inhibition at 10 µM [%] | Compound |
| --- | --- | --- |
|  | 20 to 50 | N#Cc1ccc(O[C@H]2c3ccccc3CC[C@@H]2N2CCC[C@H](N)C2)c([N+](=O)[O-])c1 (racemic) [Example 534, 4-[rac-trans-(1,2)-2-((S)-3-aminopiperidin-1-yl)-1,2,3,4-tetrahydronaphthalen-1-yloxy]-3-nitrobenzonitrile] |
| < 1 |  | N#Cc1ccc(O[C@H]2c3ccccc3CC[C@@H]2N2CCC[C@@H](N)C2)cc1 (racemic) [Example 516, 4-[rac-trans-(1,2)-2-((R)-3-aminopiperidin-1-yl)-1,2,3,4-tetrahydronaphthalen-1-yloxy]benzonitrile] |
| < 1 |  | NS(=O)(=O)c1ccc(O[C@H]2c3cc(Cl)cc(Cl)c3C[C@@H]2N2CC[C@@H](O)C2)cc1 [Example 743, 4-[trans-(1S,2S)-4,6-Dichloro-2-((R)-3-hydroxy-pyrrolidin-1-yl)-indan-1-yloxy]-benzenesulfonamide] |
| < 1 |  | Cc1nnc(C)n1-c1ccc(O[C@H]2c3cc(Cl)cc(Cl)c3C[C@@H]2N2CC[C@@H](F)C2)cc1 [Example 561, 4-{4-[trans-(1S,2S)-4,6-dichloro-2-((R)-3-fluoropyrrolidin-1-yl)indan-1-yloxy]phenyl}-3,5-dimethyl-4H-[1,2,4]triazole] |
| < 1 |  | NS(=O)(=O)c1ccc(OC2c3ccccc3CC2N2CCCC2)cc1 (racemic) [Example 466, 4-(rac-trans-(1,2)-2-pyrrolidin-1-ylindan-1-yloxy)benzenesulfonamide] |
| 1 to 10 |  | CN(C1CCC1)[C@@H]1Cc2ccccc2[C@H]1Oc1ccc(S(C)(=O)=O)cc1 (racemic) [Example 734, Cyclobutyl-[rac-trans-(1,2)-1-(4-methanesulfonyl-phenoxy)-indan-2-yl]-methyl-amine] |
| < 1 |  | CN(C)CCCN(C)[C@H]1Cc2c(Cl)cc(Cl)cc2[C@@H]1Oc1ccc(S(C)(=O)=O)cc1 [Example 672, N-[trans-(1S,2S)-4,6-dichloro-1-(4-methanesulfonylphenoxy)indan-2-yl]-N,N′,N′-trimethylpropane-1,3-diamine] |
| < 1 |  | CS(=O)(=O)c1ccc(O[C@H]2c3cc(Cl)cc(Cl)c3C[C@@H]2N2CCCC(NCCO)C2)cc1 (stereo partly drawn) [Example 379, 2-{(R)-1-[trans-(1S,2S)-4,6-dichloro-1-(4-methanesulfonylphenoxy)indan-2-yl]piperidin-3-ylamino}-ethanol] |
| 1 to 10 |  | CC(=O)Nc1ccc(OC2c3ccccc3CC2N2CCCC2)cc1 (racemic) [Example 666, N-[4-(rac-trans-(1,2)-2-pyrrolidin-1-ylindan-1-yloxy)phenyl]acetamide] |
| 1 to 10 |  | CN(C1CCNCC1)[C@@H]1Cc2ccccc2[C@H]1Oc1cccc(N2CCNCC2)c1 (racemic) [Example 629, methyl-[rac-trans-(1,2)-1-(3-piperazin-1-ylphenoxy)indan-2-yl]piperidin-4-ylamine] |
| 1 to 10 |  | N#Cc1ccc(O[C@H]2c3ccccc3CC[C@@H]2N2CCC[C@H](N)C2)c(F)c1F (racemic) [Example 528, 4-[rac-trans-(1,2)-2-((S)-3-aminopiperidin-1-yl)-1,2,3,4-tetrahydronaphthalen-1-yloxy]-2,3-difluorobenzonitrile] |
| 1 to 10 |  | CCN(CC)[C@@H]1Cc2ccccc2[C@H]1Oc1cccc(NC(C)=O)c1 (racemic) [Example 637, N-[3-(rac-trans-(1,2)-2-diethylaminoindan-1-yloxy)phenyl]acetamide] |
| < 1 |  | CS(=O)(=O)c1nccn1-c1ccc(O[C@H]2c3cc(Cl)cc(F)c3C[C@@H]2NC2CCCC2)c(F)c1 [Example 754, {trans-(1S,2S)-6-Chloro-4-fluoro-1-[2-fluoro-4-(2-methanesulfonyl-imidazol-1-yl)-phenoxy]-indan-2-yl}-cyclopentyl-amine] |
|  | 20 to 50 | CS(=O)(=O)c1ccc(O[C@@H]2c3ccccc3C[C@H]2NC2CCCCCC2)cc1 (racemic) [Example 711, Cycloheptyl-[rac-trans-(1,2)-1-(4-methanesulfonyl-phenoxy)-indan-2-yl]-amine] |
|  | 20 to 50 | N#Cc1c(F)cccc1O[C@H]1c2ccccc2CC[C@@H]1N1CCC[C@@H](N)C1 (racemic) [Example 367, 2-[rac-trans-(1,2)-2-((R)-3-aminopiperidin-1-yl)-1,2,3,4-tetrahydronaphthalen-1-yloxy]-6-fluorobenzonitrile] |
